Results reported in patent publication US10202332B2, “Method for preparing 2-amino-N-(2,2,2-trifluoroethyl) acetamide” (E. I. du Pont de Nemours and Company, priority 2010, dated 2019).

Assay: Stability comparison for free base and salts: weight gain or loss on exposure to air in the laboratory
Assay type: physicochemical
Conditions: for hygroscopicity (in words): handling, exposure to air
Experimental: To further characterize the stability of the free amine and salts of 2-amino-N-(2,2,2-trifluoroethyl)acetamide the following experiments were performed. Samples of the free amine and salts were exposed to air in the laboratory for a period of time. Weight […] or loss compared to the original sample was determined

Row | sensitivity to air (in words) | % Weight gain (loss) (3 days in ambient atmosphere, parentheses = loss) [%] | weight gain upon exposure to the ambient atmosphere (in words) | hygroscopicity (in words) | Structure (SMILES)
1 | sensitive to air | 4.65 | showed weight gain | hygroscopic | NCC(=O)NCC(F)(F)F [Free base, 2-amino-N-(2,2,2-trifluoroethyl)acetamide]
2 |  |  | did not | not hygroscopic | Cl.NCC(=O)NCC(F)(F)F [Hydrochloride, 2-amino-N-(2,2,2-trifluoroethyl)acetamide hydrochloride]
